Results as given in patent US10420844B2, “Peptide pharmaceuticals” (Mederis Diabetes LLC, priority 2011, dated 2019).
Non-standard residues stand in square brackets, D forms with d. Residues, ends and D or L forms follow the SMILES beside them. *: point of attachment. GlcA(β-D,1-O-dodecyl) = CCCCCCCCCCCCO[C@@H]1O[C@H](C(=O)*)[C@@H](O)[C@H](O)[C@H]1O; GlcA(β1-O-octyl) = CCCCCCCCO[C@@H]1O[C@H](C(=O)*)[C@@H](O)[C@H](O)[C@H]1O; βGlcA(1-OMe) = CO[C@@H]1O[C@H](C(=O)*)[C@@H](O)[C@H](O)[C@H]1O; Phe(2,4,6-Me3) = Cc1cc(C)c(C[C@H](N)C(=O)O)c(C)c1; Dmt = Cc1cc(O)cc(C)c1C[C@H](N)C(=O)O; Tic = O=C(O)[C@@H]1Cc2ccccc2CN1; Aib = CC(C)(N)C(=O)O; NHBn = c1ccc(CN*)cc1

target: T1, mu opioid receptor (Homo sapiens, UniProt P35372); assay: mu opioid receptor cellular assay (MOP, agonist and antagonist mode), cAMP readout, Cerep; type: cell-based; conditions: MOP agonist mode and DOP antagonist mode
T1 construct: Cerep SA (contract research organization)
Procedure: Compounds were weighed precisely in an amount of approximately 2 mg and assayed in standard cellular assays by the contract research organization Cerep, Inc. (Pullman, Wash.) as executed at their subsidiary, Cerep SA (Le Bois l'Eveque, France). The readout is the amount of cAMP generated in the cells treated with the test compounds, in either agonist or antagonist mode. The assays used were the mu opioid receptor cellular assay (MOP in agonist and antagonist mode), the delta2 opioid receptor cellular assay (DOP in agonist and antagonist mode) and the kappa opioid receptor cellular assay (KOP in agonist and antagonist mode). The assays used are described in Wang, J. B., et al. (1994) FEBS Lett 338: 217-222, Law, P. Y. and Loh, H. H. (1993) Mol Pharmacol 43: 684-693, and Avidor-Reiss, T., et al. (1995) FEBS Lett 361: 70-74. The stimulant for the cells in the DOR antagonist assay was 3×10E-8M DPDPE, a well-accepted DOR literature standard.

T1 sequence (P35372 whole entry): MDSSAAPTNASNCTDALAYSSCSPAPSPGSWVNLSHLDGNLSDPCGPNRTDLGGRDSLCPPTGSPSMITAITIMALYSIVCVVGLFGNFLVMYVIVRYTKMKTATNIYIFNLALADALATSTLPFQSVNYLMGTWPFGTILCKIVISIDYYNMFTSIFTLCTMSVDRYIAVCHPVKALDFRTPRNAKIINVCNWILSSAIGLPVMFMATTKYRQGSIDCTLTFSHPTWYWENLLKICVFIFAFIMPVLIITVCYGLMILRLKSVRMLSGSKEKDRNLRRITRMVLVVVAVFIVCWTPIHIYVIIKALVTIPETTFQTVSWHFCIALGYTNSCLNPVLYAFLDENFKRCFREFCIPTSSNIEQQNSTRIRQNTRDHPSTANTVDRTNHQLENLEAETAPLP

Row | Compound | Characterization
1 | CCCCCCCCO[C@@H]1O[C@H](C(=O)NCCCC[C@H](NC(=O)[C@H](Cc2ccccc2)NC(=O)[C@@H]2Cc3ccccc3CN2C(=O)[C@@H](N)Cc2c(C)cc(O)cc2C)C(N)=O)[C@@H](O)[C@H](O)[C@H]1O [EU-A180, Dmt-Tic-Phe-Lys(C8-glucuronyl)-NH2] (H-[Dmt][Tic]FK(GlcA(β1-O-octyl))-NH2) | Pure MOP Ag; pure DOP antag
2 | CO[C@@H]1O[C@H](C(=O)NCCCC[C@H](NC(=O)[C@H](Cc2ccccc2)NC(=O)[C@H](Cc2ccccc2)NC(=O)[C@@H]2Cc3ccccc3CN2C(=O)[C@@H](N)Cc2c(C)cc(O)cc2C)C(N)=O)[C@@H](O)[C@H](O)[C@H]1O [EU-A189, 2′,6′-dimethyl-L-tyrosyl-L-1,2,3,4-tetrahydroisoquinoline-3-carbonyl-L-phenylalanyl-L-phenylalanys-Nε-(1′-methyl β-D-glucuronyl)-L-lysyl-amide] | Pure MOP Ag; pure DOP antag
3 | CO[C@@H]1O[C@H](C(=O)NCCCC[C@H](NC(=O)[C@H](Cc2ccccc2)NC(=O)[C@@H]2Cc3ccccc3CN2C(=O)[C@@H](N)Cc2c(C)cc(O)cc2C)C(=O)NC(C)(C)C(N)=O)[C@@H](O)[C@H](O)[C@H]1O [EU-A600, Dmt-Tic-Phe-Lys(C1-glucuronyl)-Aib-NH2] (H-[Dmt][Tic]FK(βGlcA(1-OMe))[Aib]-NH2) | Pure MOP Ag; pure DOP antag
4 | CO[C@@H]1O[C@H](C(=O)NCCCC[C@H](NC(=O)[C@H](Cc2ccccc2)NC(=O)[C@@H]2Cc3ccccc3CN2C(=O)[C@@H](N)Cc2c(C)cc(O)cc2C)C(=O)NCc2ccccc2)[C@@H](O)[C@H](O)[C@H]1O [EU-A620, Dmt-Tic-Phe-Lys(C1-glucuronyl)-NHCH2Ph] (H-[Dmt][Tic]FK(βGlcA(1-OMe))-NHBn) | Pure MOP Ag; pure DOP antag
5 | CO[C@@H]1O[C@H](C(=O)NCCCC[C@@H](NC(=O)[C@H](Cc2ccccc2)NC(=O)[C@@H]2Cc3ccccc3CN2C(=O)[C@@H](N)Cc2c(C)cc(O)cc2C)C(=O)NCc2ccccc2)[C@@H](O)[C@H](O)[C@H]1O [EU-A639, Dmt-Tic-Phe-D-Lys(C1-glucuronyl)-NHCH2Ph] (H-[Dmt][Tic]F[dK](βGlcA(1-OMe))-NHBn; N-terminus assumed) | Pure MOP Ag; pure DOP antag
6 | Dmt-Tic-Phe-D-Lys(C1-glucuronyl)-Aib-NH2 [EU-A615] | Pure MOP Ag; pure DOP antag
7 | Dmt-Tic-Phe-Phe-Lys(C12-glucuronyl)-NH2 [EU-A190] | Pure MOP Ag; pure DOP antag

same assay, conditions: MOP agonist/antagonist modes

Row | Compound | Characterization
8 | CO[C@@H]1O[C@H](C(=O)NCCCC[C@H](NC(=O)[C@H](Cc2c(C)cc(C)cc2C)NC(=O)[C@@H]2CCCN2C(=O)[C@@H](N)Cc2c(C)cc(O)cc2C)C(N)=O)[C@@H](O)[C@H](O)[C@H]1O [EU-A101, Dmt-Pro-Tmp-Lys(C1-glucuronyl)-NH2] (H-[Dmt]P[Phe(2,4,6-Me3)]K(βGlcA(1-OMe))-NH2; N-terminus assumed) | pure agonist
9 | CCCCCCCCO[C@@H]1O[C@H](C(=O)NCCCC[C@H](NC(=O)[C@H](Cc2c(C)cc(C)cc2C)NC(=O)[C@@H]2CCCN2C(=O)[C@@H](N)Cc2c(C)cc(O)cc2C)C(N)=O)[C@@H](O)[C@H](O)[C@H]1O [EU-A102, 2′,6′-dimethyl-L-tyrosyl-prolyl-2′,4′,6′-trimethyl-L-phenylalanyl-Nε-(1′-octyl β-D-glucuronyl)-L-lysine amide] (H-[Dmt]P[Phe(2,4,6-Me3)]K(GlcA(β1-O-octyl))-NH2) | partial agonist
10 | CCCCCCCCCCCCO[C@@H]1O[C@H](C(=O)NCCCC[C@H](NC(=O)[C@H](Cc2c(C)cc(C)cc2C)NC(=O)[C@@H]2CCCN2C(=O)[C@@H](N)Cc2c(C)cc(O)cc2C)C(N)=O)[C@@H](O)[C@H](O)[C@H]1O [EU-A103, Dmt-Pro-Tmp-Lys(C12-glucuronyl)-NH2] (H-[Dmt]P[Phe(2,4,6-Me3)]K(GlcA(β-D,1-O-dodecyl))-NH2; N-terminus assumed) | pure antagonist
11 | CO[C@@H]1O[C@H](C(=O)NCCCC[C@@H](NC(=O)[C@@H](N)Cc2c(C)cc(O)cc2C)C(=O)N[C@@H](Cc2c(C)cc(C)cc2C)C(=O)N[C@@H](Cc2ccccc2)C(N)=O)[C@@H](O)[C@H](O)[C@H]1O [EU-A107, Dmt-D-Lys(C1-glucuronyl)-Tmp-Phe-NH2] (H-[Dmt][dK](βGlcA(1-OMe))[Phe(2,4,6-Me3)]F-NH2; N-terminus assumed) | Agonist

system: not listed separately; assay: blood PO4 and Ca levels in rats after a single sc injection; type: in vivo, rat; conditions: rat, sc, 80 (PTH, EU-232) or 320 (EU-232), all time points
Description: Following the method of Frolik, C.

Row | Compound | blood calcium levels versus control (saline/vehicle)
12 | CC[C@H](C)[C@H](NC(=O)[C@H](CCC(=O)O)NC(=O)[C@H](CO)NC(=O)[C@@H](NC(=O)[C@@H](N)CO)C(C)C)C(=O)N[C@@H](CCC(N)=O)C(=O)N[C@@H](CC(C)C)C(=O)N[C@@H](CCSC)C(=O)N[C@@H](Cc1cnc[nH]1)C(=O)N[C@@H](CC(N)=O)C(=O)N[C@@H](CC(C)C)C(=O)NCC(=O)N[C@@H](CCCCN)C(=O)N[C@@H](Cc1cnc[nH]1)C(=O)N[C@@H](CC(C)C)C(=O)N[C@@H](CC(N)=O)C(=O)N[C@@H](CO)C(=O)N[C@@H](CCSC)C(=O)N[C@@H](CCC(=O)O)C(=O)N[C@@H](CCCN=C(N)N)C(=O)N[C@H](C(=O)N[C@@H](CCC(=O)O)C(=O)N[C@@H](Cc1c[nH]c2ccccc12)C(=O)N[C@@H](CC(C)C)C(=O)N[C@@H](CCCN=C(N)N)C(=O)N[C@@H](CCCCN)C(=O)N[C@@H](CCCCN)C(=O)N[C@@H](CC(C)C)C(=O)N[C@@H](CCC(N)=O)C(=O)N[C@@H](CC(=O)O)C(=O)N[C@H](C(=O)N[C@@H](Cc1cnc[nH]1)C(=O)N[C@@H](CC(N)=O)C(=O)N[C@@H](Cc1ccccc1)C(=O)O)C(C)C)C(C)C [PTH, reference compound] | No groups were statistically significantly different from control

same assay, conditions: rat, single sc injection, 80 mcg; PO4 did not further diminish after 1 hour

Row | Compound | blood PO4 levels, 80 mcg groups
13 | CC[C@H](C)[C@H](NC(=O)[C@H](CCC(=O)O)NC(=O)[C@H](CO)NC(=O)[C@@H](NC(=O)[C@@H](N)CO)C(C)C)C(=O)N[C@@H](CCC(N)=O)C(=O)N[C@@H](CC(C)C)C(=O)N[C@@H](CCSC)C(=O)N[C@@H](Cc1cnc[nH]1)C(=O)N[C@@H](CC(N)=O)C(=O)N[C@@H](CC(C)C)C(=O)NCC(=O)N[C@@H](CCCCN)C(=O)N[C@@H](Cc1cnc[nH]1)C(=O)N[C@@H](CC(C)C)C(=O)N[C@@H](CC(N)=O)C(=O)N[C@@H](CO)C(=O)N[C@@H](CCSC)C(=O)N[C@@H](CCC(=O)O)C(=O)N[C@@H](CCCN=C(N)N)C(=O)N[C@H](C(=O)N[C@@H](CCC(=O)O)C(=O)N[C@@H](Cc1c[nH]c2ccccc12)C(=O)N[C@@H](CC(C)C)C(=O)N[C@@H](CCCN=C(N)N)C(=O)N[C@@H](CCCCN)C(=O)N[C@@H](CCCCN)C(=O)N[C@@H](CC(C)C)C(=O)N[C@@H](CCC(N)=O)C(=O)N[C@@H](CC(=O)O)C(=O)N[C@H](C(=O)N[C@@H](Cc1cnc[nH]1)C(=O)N[C@@H](CC(N)=O)C(=O)N[C@@H](Cc1ccccc1)C(=O)O)C(C)C)C(C)C [PTH, reference compound] | transient but not statistically significant decrease

system: not given; assay: not given; conditions: in water; cited from earlier work

Row | Compound | CMC [mM]
14 | CCCCCCCCCCCCCCO[C@@H]1O[C@H](CO)[C@@H](O[C@@H]2O[C@@H](CO)[C@H](O)[C@@H](O)[C@@H]2O)[C@H](O)[C@H]1O (stereo in doubt) [Tetradecyl maltoside] | 0.01
15 | CCCCCCCCCCCCCO[C@@H]1O[C@H](CO)[C@@H](OC2OC(CO)C(O)C(O)C2O)[C@H](O)[C@H]1O (stereo in doubt) [Tridecyl maltoside] | 0.03
16 | CCCCCCCCCCO[C@@H]1O[C@H](CO)[C@@H](O[C@H]2O[C@H](CO)[C@@H](O)[C@H](O)[C@H]2O)[C@H](O)[C@H]1O [Decyl maltoside] | 1.8
17 | CCCCCCCCCCCCO[C@@H]1O[C@H](CO)[C@@H](O[C@H]2O[C@H](CO)[C@@H](O)[C@H](O)[C@H]2O)[C@H](O)[C@H]1O [Dodecyl-β-D-maltoside] | 0.17
18 | CCCCCCCCO[C@@H]1O[C@H](CO)[C@@H](O[C@H]2O[C@H](CO)[C@@H](O)[C@H](O)[C@H]2O)[C@H](O)[C@H]1O [Octyl maltoside] | 19.5
19 | Sucrose dodecanoate | 0.3
